Columns and labels:
Type in all cases: in vivo
Maize = assay: Comparison test with prior art compound A, post-emergence herbicidal action (Example B4); details: 125 g/ha, crop plant, rating scale 10=total damage, 0=no action
From the text: (§1) The post-emergence herbicidal action of compound no. 1.095 according to the invention was compared with compound A, which is described as compound no.

Sida = assay: as above; details: 125 g/ha, rating scale 10=total damage, 0=no action
From the text: as §1

Sinapis = assay: as above; details: 125 g/ha, rating scale 10=total damage, 0=no action
From the text: as §1

Stellaria [1] = assay: as above; details: 125 g/ha, rating scale 10=total damage, 0=no action
From the text: as §1

Wheat = assay: as above; details: 125 g/ha, crop plant, rating scale 10=total damage, 0=no action
From the text: as §1

Abutilon = assay: Pre-emergence herbicidal action (Example B1); details: 250 g/ha, after 4 weeks, rating scale 10=total damage, 0=no action
Description: (§2) Monocotyledonous and dicotyledonous test plants are sown in standard soil in pots or seed trays. Immediately after sowing, the test compounds, in the form of an aqueous suspension (prepared from a wettable powder (Example F3, b) according to WO 97/34485) or in the form of an emulsion (prepared from an emulsifiable concentrate (Example F1, c) according to WO 97/34485), are applied by spraying in a concentration of 250 g/ha. The test plants are then grown in a greenhouse under optimum conditions. After a test duration of 4 weeks, the test is evaluated in accordance with a scale of eleven ratings (10=total damage, 0=no action). Ratings of from 10 to 7 (especially from 10 to 8) indicate very good to good herbicidal action.

Amaranthus [2] = assay: Pre-emergence herbicidal action (Example B1); details: 250 g/ha, after 4 weeks, rating scale 10=total damage, 0=no action
Description: as §2

Chenopodium [3] = assay: Pre-emergence herbicidal action (Example B1); details: 250 g/ha, after 4 weeks, rating scale 10=total damage, 0=no action
Description: as §2

Digitaria = assay: Pre-emergence herbicidal action (Example B1); details: 250 g/ha, after 4 weeks, rating scale 10=total damage, 0=no action
Description: as §2

Echinochloa [4] = assay: Pre-emergence herbicidal action (Example B1); details: 250 g/ha, after 4 weeks, rating scale 10=total damage, 0=no action
Description: as §2

Panicum [5] = assay: Pre-emergence herbicidal action (Example B1); details: 250 g/ha, after 4 weeks, rating scale 10=total damage, 0=no action
Description: as §2

Scirpus = assay: Pre-emergence herbicidal action (Example B1); details: 250 g/ha, after 4 weeks, rating scale 10=total damage, 0=no action
Description: as §2

Amaranthus [6] = assay: Post-emergence herbicidal action (Example B2); details: 250 g/ha, after about 18 days, rating scale 10=total damage, 0=no action
From the text: (§3) Monocotyledonous and dicotyledonous test plants are cultivated in a greenhouse in standard soil in plastic pots and, at the 4- to 6-leaf stage, are sprayed with an aqueous suspension of the test compounds of formula I prepared from a 25% wettable powder (Example F3, b) according to WO 97/34485) or with an emulsion of the test compounds of formula I prepared from a 25% emulsifiable concentrate (Example F1, c) according to WO 97/34485), corresponding to concentrations of 125 and 250 g of active ingredient per hectare (500 litres of water per ha). The test plants are then grown on in the greenhouse under optimum conditions. After a test duration of about 18 days, the test is evaluated in accordance with a scale of eleven ratings (10=total damage, 0=no action). Ratings of from 10 to 7 (especially from 10 to 8) indicate very good to good herbicidal action.

Chenopodium [7] = assay: Post-emergence herbicidal action (Example B2); details: 250 g/ha, after about 18 days, rating scale 10=total damage, 0=no action
From the text: as §3

Echinochloa [8] = assay: Post-emergence herbicidal action (Example B2); details: 250 g/ha, after about 18 days, rating scale 10=total damage, 0=no action
From the text: as §3

Euphorbia = assay: Post-emergence herbicidal action (Example B2); details: 250 g/ha, after about 18 days, rating scale 10=total damage, 0=no action
From the text: as §3

Panicum [9] = assay: Post-emergence herbicidal action (Example B2); details: 250 g/ha, after about 18 days, rating scale 10=total damage, 0=no action
From the text: as §3

Stellaria [10] = assay: Post-emergence herbicidal action (Example B2); details: 250 g/ha, after about 18 days, rating scale 10=total damage, 0=no action
From the text: as §3

Xanthium = assay: Post-emergence herbicidal action (Example B2); details: 250 g/ha, after about 18 days, rating scale 10=total damage, 0=no action
From the text: as §3

| SMILES | Post-emergence herbicidal action: Maize (Maize) | Post-emergence herbicidal action: Sida (Sida) | Post-emergence herbicidal action: Sinapis (Sinapis) | Post-emergence herbicidal action: Stellaria (Stellaria [1]) | Post-emergence herbicidal action: Wheat (Wheat) | Pre-emergence action: Abutilon (Abutilon) | Pre-emergence action: Amaranthus (Amaranthus [2]) | Pre-emergence action: Chenopodium (Chenopodium [3]) | Pre-emergence action: Digitaria (Digitaria) | Pre-emergence action: Echinochloa (Echinochloa [4]) | Pre-emergence action: Panicum (Panicum [5]) | Pre-emergence action: Scirpus (Scirpus) | Post-emergence action: Amaranthus (Amaranthus [6]) | Post-emergence action: Chenopodium (Chenopodium [7]) | Post-emergence action: Echinochloa (Echinochloa [8]) | Post-emergence action: Euphorbia (Euphorbia) | Post-emergence action: Panicum (Panicum [9]) | Post-emergence action: Stellaria (Stellaria [10]) | Post-emergence action: Xanthium (Xanthium) |
| --- | --- | --- | --- | --- | --- | --- | --- | --- | --- | --- | --- | --- | --- | --- | --- | --- | --- | --- | --- |
| O=C1CCCC(O)=C1C(=O)c1ncc(C(F)(F)F)cc1Cl [A, reference compound] | 0 | 2 | 6 | 9 | 0 |  |  |  |  |  |  |  |  |  |  |  |  |  |  |
| CC1CN(c2nc(C(=O)C3=C(O)CCCC3=O)ccc2C(F)(F)F)CC(C)O1 (centres unmarked) [Compound 1.075] |  |  |  |  |  | 9 | 10 | 9 | 10 | 10 | 10 | 7 | 10 | 10 | 8 | 8 | 10 | 8 | 7 |
| O=C1CCCC(O)=C1C(=O)c1ccc(C(F)(F)F)c(N2CCSCC2)n1 [Compound 1.079] |  |  |  |  |  | 10 | 10 | 9 | 10 | 10 | 10 | 4 | 8 | 10 | 7 | 8 | 3 | 10 | 7 |
| COCCOCc1nc(C(=O)C2=C(O)CCCC2=O)ccc1C(F)(F)F [Compound 1.126] |  |  |  |  |  | 10 | 10 | 10 | 6 | 2 | 9 | 8 | 8 | 8 | 7 | 8 | 7 | 8 | 8 |
| CC1(C)C(=O)C(C(=O)c2ccc(C(F)(F)F)c(OC3CCOC3)n2)=C(O)C(C)(C)C1=O (centres unmarked) [Compound 2.021] |  |  |  |  |  | 9 | 7 | 9 | 3 | 0 | 9 | 7 | 9 | 8 | 9 | 9 | 9 | 7 | 8 |
| CC1(C)C(=O)C(C(=O)c2ccc(C(F)(F)F)c(N3CCOCC3)n2)=C(O)C(C)(C)C1=O [Compound 2.073] |  |  |  |  |  | 9 | 9 | 9 | 7 | 9 | 10 | 4 | 9 | 8 | 9 | 9 | 9 | 7 | 9 |
| CC1(C)C(=O)C(C(=O)c2ccc(C(F)(F)F)c(N3CCSCC3)n2)=C(O)C(C)(C)C1=O [Compound 2.078] |  |  |  |  |  | 10 | 8 | 10 | 10 | 10 | 10 | 0 | 7 | 10 | 8 | 7 | 5 | 10 | 7 |
| CC1(C)C(=O)C(C(=O)c2ccc(C(F)(F)F)c(C3(C)OCCO3)n2)=C(O)C(C)(C)C1=O [Compound 2.191] |  |  |  |  |  | 10 | 7 | 9 | 7 | 10 | 10 | 3 | 3 | 7 | 8 | 8 | 9 | 10 | 8 |
| Cc1nc(C(=O)C2=C(O)C(C)(C)C(=O)C(C)(C)C2=O)ccc1C#N [Compound 2.209] |  |  |  |  |  | 10 | 9 | 9 | 8 | 10 | 10 | 2 | 8 | 6 | 8 | 8 | 9 | 10 | 9 |
| CC1CC(=O)C(C(=O)c2ccc(C(F)(F)F)c(N3CCOCC3)n2)=C(O)C1 (centres unmarked) [Compound 3.069] |  |  |  |  |  | 10 | 10 | 6 | 10 | 10 | 10 | 5 | 8 | 10 | 7 | 5 | 8 | 7 | 8 |
| CC1CCC(O)=C(C(=O)c2ccc(C(F)(F)F)c(N3CCOCC3)n2)C1=O (centres unmarked) [Compound 3.071] |  |  |  |  |  | 9 | 8 | 6 | 10 | 10 | 10 | 8 | 8 | 10 | 8 | 7 | 9 | 8 | 8 |
| CC1(C)CCC(O)=C(C(=O)c2ccc(C(F)(F)F)c(N3CCOCC3)n2)C1=O [Compound 3.072] |  |  |  |  |  | 9 | 3 | 8 | 10 | 10 | 9 | 7 | 7 | 9 | 7 | 7 | 8 | 8 | 8 |
| CC1CC(O)=C(C(=O)c2ccc(C(F)(F)F)c(N3CCOCC3)n2)C(=O)C1(C)C (centres unmarked) [Compound 3.073] |  |  |  |  |  | 5 | 0 | 7 | 9 | 7 | 10 | 7 | 4 | 9 | 8 | 7 | 7 | 7 | 7 |

— US20070167631A1, “Novel herbicides” (priority 2003, published 2007)
